Laboratory results from patent US12139492B2 (Endotarget Inc., priority 2021, dated 2024).

Tests used:
Mino cells = assay: Antiproliferative effect, MTS cell viability assay, Mino cells; type: cell-based; conditions: Homo sapiens, MINO, Mino mantle cell lymphoma cells; read-out: IC50 (anti-proliferation) Mino cells
Method: (§1) Antiproliferative effect of the exemplary compounds was assessed in B-cell malignancy models.
(§2) To assess the effect of the exemplary compounds on cell viability in B-cell malignancy models by degradation of BTK protein, Mino and JeKo-1 cells were treated with varying concentrations of Ibrutinib (0, 0.001, 0.01, 0.1, 1, 10 μM). Under these conditions, cell viability was determined by an MTS assay. Cytotoxicity was assayed by the determination of reduced tetrazolium (formazan) created by metabolically active cells as detected at 490 nm absorbance using a microplate reader (BMG Labtech, Cary, NC, USA).
(§3) The exemplary compounds attenuated the viability of Mino and JeKo-1 cells in a concentration-dependent manner at 72 h post treatment. Results are shown in Table 1 for each exemplary compound.

JeKo-1 cells = assay: Antiproliferative effect, MTS cell viability assay, JeKo-1 cells; type: cell-based; conditions: Homo sapiens; JeKo-1 mantle cell lymphoma cells; read-out: IC50 (anti-proliferation) JeKO-1 cells
Method: as §1, §2, §3

BTK = BTK (Homo sapiens, UniProt Q06187); assay: Degradation of BTK protein in Namalwa cells (Western blot; DC50, Dmax); conditions: for DC50: BTK degradation, cell line not given
BTK, sequence (Q06187 whole entry): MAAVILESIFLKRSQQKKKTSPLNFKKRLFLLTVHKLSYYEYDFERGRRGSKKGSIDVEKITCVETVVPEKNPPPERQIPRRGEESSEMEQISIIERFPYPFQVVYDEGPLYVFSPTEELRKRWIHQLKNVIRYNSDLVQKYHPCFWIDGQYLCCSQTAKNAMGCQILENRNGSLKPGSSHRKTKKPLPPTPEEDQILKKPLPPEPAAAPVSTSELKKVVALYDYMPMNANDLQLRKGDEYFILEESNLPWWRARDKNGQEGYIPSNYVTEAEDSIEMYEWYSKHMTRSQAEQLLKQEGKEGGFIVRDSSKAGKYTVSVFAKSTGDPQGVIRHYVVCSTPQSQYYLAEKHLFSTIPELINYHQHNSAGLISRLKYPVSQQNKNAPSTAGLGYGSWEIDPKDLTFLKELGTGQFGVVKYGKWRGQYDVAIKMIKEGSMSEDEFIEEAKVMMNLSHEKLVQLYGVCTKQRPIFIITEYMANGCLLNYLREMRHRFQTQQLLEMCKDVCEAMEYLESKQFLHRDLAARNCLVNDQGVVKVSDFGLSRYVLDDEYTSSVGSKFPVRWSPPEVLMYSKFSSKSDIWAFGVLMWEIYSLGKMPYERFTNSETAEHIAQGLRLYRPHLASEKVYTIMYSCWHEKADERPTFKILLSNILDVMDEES

Dmax (BTK) [%] | DC50 (BTK) [nM] | SMILES | IC50 (Mino cells) [nM] | IC50 (JeKo-1 cells) [nM]
> 75 | > 50 | Nc1ncnc2c1c(-c1ccc(Oc3ccccc3)cc1)nn2C1CCN(C2CCN(CCCC3CCN(c4ccc5c(c4)C(=O)N(C4CCC(=O)NC4=O)C5=O)CC3)CC2)CC1 (stereo not shown) [Compound 225, 5-(4-(3-(4-(4-amino-3-(4-phenoxyphenyl)-1H-pyrazolo[3,4-d]pyrimidin-1-yl)-[1,4′-bipiperidin]-1′-yl)propyl)piperidin-1-yl)-2-(2,6-dioxopiperidin-3-yl)isoindoline-1,3-dione] | > 10000 | > 10000
> 75 | 10 to 50 | Nc1ncnc2c1c(-c1ccc(Oc3ccccc3)cc1)nn2C1CCN(C2CCN(CCCC3CCN(c4ccc5c(c4)CN(C4CCC(=O)NC4=O)C5=O)CC3)CC2)CC1 (stereo not shown) [Compound 226, 3-(5-(4-(3-(4-(4-amino-3-(4-phenoxyphenyl)-1H-pyrazolo[3,4-d]pyrimidin-1-yl)-[1,4′-bipiperidin]-1′-yl)propyl)piperidin-1-yl)-1-oxoisoindolin-2-yl)piperidine-2,6-dione] | 1000 to 10000 | > 10000
> 50 | > 50 | Nc1ncnc2c1c(-c1ccc(Oc3ccccc3)cc1)nn2C1CCN(C2CCN(C(=O)N3CCC(c4ccc5c(c4)C(=O)N(C4CCC(=O)NC4=O)C5=O)CC3)CC2)CC1 (stereo not shown) [Compound 227, 5-(1-(4-(4-amino-3-(4-phenoxyphenyl)-1H-pyrazolo[3,4-d]pyrimidin-1-yl)-[1,4′-bipiperidine]-1′-carbonyl)piperidin-4-yl)-2-(2,6-dioxopiperidin-3-yl)isoindoline-1,3-dione] | > 10000 | > 10000
> 50 | > 50 | Nc1ncnc2c1c(-c1ccc(Oc3ccccc3)cc1)nn2C1CCN(C2CCN(C(=O)N3CCC(c4ccc5c(c4)CN(C4CCC(=O)NC4=O)C5=O)CC3)CC2)CC1 (stereo not shown) [Compound 228, 3-(5-(1-(4-(4-amino-3-(4-phenoxyphenyl)-1H-pyrazolo[3,4-d]pyrimidin-1-yl)-[1,4′-bipiperidine]-1′-carbonyl)piperidin-4-yl)-1-oxoisoindolin-2-yl)piperidine-2,6-dione] | > 10000 | > 10000
> 50 | > 50 | Nc1ncnc2c1c(-c1ccc(Oc3ccccc3)cc1)nn2C1CCN(C2CCN(C(=O)N3CCN(c4ccc5c(c4)C(=O)N(C4CCC(=O)NC4=O)C5=O)CC3)CC2)CC1 (stereo not shown) [Compound 229, 5-(4-(4-(4-amino-3-(4-phenoxyphenyl)-1H-pyrazolo[3,4-d]pyrimidin-1-yl)-[1,4′-bipiperidine]-1′-carbonyl)piperazin-1-yl)-2-(2,6-dioxopiperidin-3-yl)isoindoline-1,3-dione] | > 10000 | 1000 to 10000
> 50 | > 50 | Nc1ncnc2c1c(-c1ccc(Oc3ccccc3)cc1)nn2C1CCN(C2CCN(C(=O)N3CCN(c4ccc5c(c4)CN(C4CCC(=O)NC4=O)C5=O)CC3)CC2)CC1 (stereo not shown) [Compound 230, 3-(5-(4-(4-(4-amino-3-(4-phenoxyphenyl)-1H-pyrazolo[3,4-d]pyrimidin-1-yl)-[1,4′-bipiperidine]-1′-carbonyl)piperazin-1-yl)-1-oxoisoindolin-2-yl)piperidine-2,6-dione] | 1000 to 10000 | 1000 to 10000
> 90 | 10 to 50 | Nc1ncnc2c1c(-c1ccc(Oc3ccccc3)cc1)nn2C1CCN(C2CCN(C(=O)N3CCC(N4CCN(c5ccc6c(c5)C(=O)N(C5CCC(=O)NC5=O)C6=O)CC4)CC3)CC2)CC1 (stereo not shown) [Compound 231, 5-(4-(1-(4-(4-amino-3-(4-phenoxyphenyl)-1H-pyrazolo[3,4-d]pyrimidin-1-yl)-[1,4′-bipiperidine]-1′-carbonyl)piperidin-4-yl)piperazin-1-yl)-2-(2,6-dioxopiperidin-3-yl)isoindoline-1,3-dione] | 1000 to 10000 | 1000 to 10000
> 90 | < 10 | Nc1ncnc2c1c(-c1ccc(Oc3ccccc3)cc1)nn2C1CCN(C2CCN(C(=O)N3CCC(N4CCN(c5ccc6c(c5)CN(C5CCC(=O)NC5=O)C6=O)CC4)CC3)CC2)CC1 (stereo not shown) [Compound 232, 3-(5-(4-(1-(4-(4-amino-3-(4-phenoxyphenyl)-1H-pyrazolo[3,4-d]pyrimidin-1-yl)-[1,4′-bipiperidine]-1′-carbonyl)piperidin-4-yl)piperazin-1-yl)-1-oxoisoindolin-2-yl)piperidine-2,6-dione] | 1000 to 10000 | 1000 to 10000
> 75 | > 50 | Nc1ncnc2c1c(-c1ccc(Oc3ccccc3)cc1)nn2C1CCN(C2CCN(C(=O)N3CCN(C4CCN(c5ccc6c(c5)C(=O)N(C5CCC(=O)NC5=O)C6=O)CC4)CC3)CC2)CC1 (stereo not shown) [Compound 233, 5-(4-(4-(4-(4-amino-3-(4-phenoxyphenyl)-1H-pyrazolo[3,4-d]pyrimidin-1-yl)-[1,4′-bipiperidine]-1′-carbonyl)piperazin-1-yl)piperidin-1-yl)-2-(2,6-dioxopiperidin-3-yl)isoindoline-1,3-dione] | 1000 to 10000 | 1000 to 10000
> 75 | 10 to 50 | Nc1ncnc2c1c(-c1ccc(Oc3ccccc3)cc1)nn2C1CCN(C2CCN(C(=O)N3CCN(C4CCN(c5ccc6c(c5)CN(C5CCC(=O)NC5=O)C6=O)CC4)CC3)CC2)CC1 (stereo not shown) [Compound 234, 3-(5-(4-(4-(4-(4-amino-3-(4-phenoxyphenyl)-1H-pyrazolo[3,4-d]pyrimidin-1-yl)-[1,4′-bipiperidine]-1′-carbonyl)piperazin-1-yl)piperidin-1-yl)-1-oxoisoindolin-2-yl)piperidine-2,6-dione] | 1000 to 10000 | 1000 to 10000
> 90 | 10 to 50 | Nc1ncnc2c1c(-c1ccc(Oc3ccccc3)cc1)nn2C1CCN(C2CCN(C(=O)N3CCC(N4CCC(c5ccc6c(c5)C(=O)N(C5CCC(=O)NC5=O)C6=O)CC4)CC3)CC2)CC1 (stereo not shown) [Compound 235, 5-(1′-(4-(4-amino-3-(4-phenoxyphenyl)-1H-pyrazolo[3,4-d]pyrimidin-1-yl)-[1,4′-bipiperidine]-1′-carbonyl)-[1,4′-bipiperidin]-4-yl)-2-(2,6-dioxopiperidin-3-yl)isoindoline-1,3-dione] | 1000 to 10000 | 1000 to 10000
> 90 | 10 to 50 | Nc1ncnc2c1c(-c1ccc(Oc3ccccc3)cc1)nn2C1CCN(C2CCN(C(=O)N3CCC(N4CCC(c5ccc6c(c5)CN(C5CCC(=O)NC5=O)C6=O)CC4)CC3)CC2)CC1 (stereo not shown) [Compound 236, 3-(5-(1′-(4-(4-amino-3-(4-phenoxyphenyl)-1H-pyrazolo[3,4-d]pyrimidin-1-yl)-[1,4′-bipiperidine]-1′-carbonyl)-[1,4′-bipiperidin]-4-yl)-1-oxoisoindolin-2-yl)piperidine-2,6-dione] | 1000 to 10000 | 1000 to 10000
> 90 | 10 to 50 | Nc1ncnc2c1c(-c1ccc(Oc3ccccc3)cc1)nn2C1CCN(C2CCN(C(=O)N3CCC(CC4CCN(c5ccc6c(c5)C(=O)N(C5CCC(=O)NC5=O)C6=O)CC4)CC3)CC2)CC1 (stereo not shown) [Compound 237, 5-(4-((1-(4-(4-amino-3-(4-phenoxyphenyl)-1H-pyrazolo[3,4-d]pyrimidin-1-yl)-[1,4′-bipiperidine]-1′-carbonyl)piperidin-4-yl)methyl)piperidin-1-yl)-2-(2,6-dioxopiperidin-3-yl)isoindoline-1,3-dione] | < 1000 | 1000 to 10000
> 90 | < 10 | Nc1ncnc2c1c(-c1ccc(Oc3ccccc3)cc1)nn2C1CCN(C2CCN(C(=O)N3CCC(CC4CCN(c5ccc6c(c5)CN(C5CCC(=O)NC5=O)C6=O)CC4)CC3)CC2)CC1 (stereo not shown) [Compound 238, 3-(5-(4-((1-(4-(4-amino-3-(4-phenoxyphenyl)-1H-pyrazolo[3,4-d]pyrimidin-1-yl)-[1,4′-bipiperidine]-1′-carbonyl)piperidin-4-yl)methyl)piperidin-1-yl)-1-oxoisoindolin-2-yl)piperidine-2,6-dione] | < 1000 | 1000 to 10000
> 90 | 10 to 50 | Nc1ncnc2c1c(-c1ccc(Oc3ccccc3)cc1)nn2C1CCN(C2CCN(C(=O)N3CCC(CN4CCN(c5ccc6c(c5)C(=O)N(C5CCC(=O)NC5=O)C6=O)CC4)CC3)CC2)CC1 (stereo not shown) [Compound 239, 5-(4-((1-(4-(4-amino-3-(4-phenoxyphenyl)-1H-pyrazolo[3,4-d]pyrimidin-1-yl)-[1,4′-bipiperidine]-1′-carbonyl)piperidin-4-yl)methyl)piperazin-1-yl)-2-(2,6-dioxopiperidin-3-yl)isoindoline-1,3-dione] | 1000 to 10000 | < 1000
> 90 | < 10 | Nc1ncnc2c1c(-c1ccc(Oc3ccccc3)cc1)nn2C1CCN(C2CCN(C(=O)N3CCC(CN4CCN(c5ccc6c(c5)CN(C5CCC(=O)NC5=O)C6=O)CC4)CC3)CC2)CC1 (stereo not shown) [Compound 240, 3-(5-(4-((1-(4-(4-amino-3-(4-phenoxyphenyl)-1H-pyrazolo[3,4-d]pyrimidin-1-yl)-[1,4′-bipiperidine]-1′-carbonyl)piperidin-4-yl)methyl)piperazin-1-yl)-1-oxoisoindolin-2-yl)piperidine-2,6-dione] | 1000 to 10000 | < 1000
